Test results taken from patent publication US6723753B2, “Substituted n-benzyl-n-phenyl aminoalcohol compounds useful for inhibiting cholesteryl ester transfer protein activity” (Pharmacia Corporation, priority 2002, dated 2004).
Where two headings read alike, the source gives them in different places.

Biological target: T1, CETP (Homo sapiens, UniProt P11597)
T1 sequence (P11597 18-493): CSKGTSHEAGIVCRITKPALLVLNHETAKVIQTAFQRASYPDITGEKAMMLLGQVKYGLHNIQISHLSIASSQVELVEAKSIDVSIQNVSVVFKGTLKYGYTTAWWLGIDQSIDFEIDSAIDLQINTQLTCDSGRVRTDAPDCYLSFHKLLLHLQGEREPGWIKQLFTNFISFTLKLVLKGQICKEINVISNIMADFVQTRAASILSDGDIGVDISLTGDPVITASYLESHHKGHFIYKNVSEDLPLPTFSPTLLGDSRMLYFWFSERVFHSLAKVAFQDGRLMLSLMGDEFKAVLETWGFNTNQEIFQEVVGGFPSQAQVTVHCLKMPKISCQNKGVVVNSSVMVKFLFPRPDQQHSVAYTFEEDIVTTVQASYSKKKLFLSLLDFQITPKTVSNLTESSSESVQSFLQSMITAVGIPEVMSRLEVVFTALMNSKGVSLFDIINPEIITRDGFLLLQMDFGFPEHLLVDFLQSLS
Assay: Assay of CETP Inhibition using Purified Components (Reconstituted Buffer Assay)
Assay type: biochemical
Set-up: made in house; host or cells: CHO cells (serum-free conditioned medium)
Conditions: transfer of [3H]CE from HDL to LDL
How it was run: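 Purified human recombinant CETP from transfected CHO cells was incubated with [^3H]CE-labeled HDL donor and LDL acceptor in Tris pH 7.4/NaCl/EDTA/1% BSA buffer for 2 h at 37 °C. LDL was then precipitated with dextran sulfate/MgCl2, filtered, and counted by liquid scintillation to give IC50 for CE transfer.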

[1] = Inhibition of CETP activity in reconstituted buffer assay, read-out: IC50
[2] = IC50, Inhibition of CETP activity in reconstituted buffer assay

IC50 [1] [nM]	SMILES	IC50 [2] [nM]
> 50000	O=C(Nc1cccc(N(Cc2cccc(OC(F)(F)C(F)F)c2)CC(O)C(F)(F)F)c1)Nc1cccc(C(F)(F)F)c1 (centres unmarked) [Example 548]	
> 50000	CC(C)NC(=O)Nc1cccc(N(Cc2cccc(OC(F)(F)C(F)F)c2)CC(O)C(F)(F)F)c1 (centres unmarked) [Example 549]	
10000	OC(CN(Cc1cccc(OC(F)(F)C(F)F)c1)c1cccc(-c2cc(C(F)(F)F)cc(C(F)(F)F)c2)c1)C(F)(F)F (centres unmarked) [Example 551]	
4800	CSc1ccc(-c2cccc(N(Cc3cccc(OC(F)(F)C(F)F)c3)CC(O)C(F)(F)F)c2)cc1 (centres unmarked) [Example 553]	
2500	COc1c(Cl)cc(-c2cccc(N(Cc3cccc(OC(F)(F)C(F)F)c3)CC(O)C(F)(F)F)c2)cc1Cl (centres unmarked) [Example 555]	
1800	OC(CN(Cc1cccc(OC(F)(F)C(F)F)c1)c1cccc(-c2ccc(Cl)c(Cl)c2)c1)C(F)(F)F (centres unmarked) [Example 561]	
2100	COc1ccc(-c2cccc(N(Cc3cccc(OC(F)(F)C(F)F)c3)CC(O)C(F)(F)F)c2)cc1C (centres unmarked) [Example 562]	
> 50000	Cc1cc(-c2cccc(N(Cc3cccc(OC(F)(F)C(F)F)c3)CC(O)C(F)(F)F)c2)cc(C)c1N(C)C (centres unmarked) [Example 563]	
1500	OC(CN(Cc1cccc(OC(F)(F)C(F)F)c1)c1cccc(-c2ccc(Cl)cc2)c1)C(F)(F)F (centres unmarked) [Example 565]	
2700	Cc1ccc(-c2cccc(N(Cc3cccc(OC(F)(F)C(F)F)c3)CC(O)C(F)(F)F)c2)cc1 (centres unmarked) [Example 566]	
550	OC(CN(Cc1cccc(OC(F)(F)C(F)F)c1)c1cccc(-c2ccc(Cl)cc2Cl)c1)C(F)(F)F (centres unmarked) [Example 567]	
1400	OC(CN(Cc1cccc(OC(F)(F)C(F)F)c1)c1cccc(-c2ccc(F)cc2)c1)C(F)(F)F (centres unmarked) [Example 568]	
1200	Cc1cc(-c2cccc(N(Cc3cccc(OC(F)(F)C(F)F)c3)CC(O)C(F)(F)F)c2)ccc1F (centres unmarked) [Example 569]	
1800	OC(CN(Cc1cccc(OC(F)(F)C(F)F)c1)c1cccc(-c2ccccc2C(F)(F)F)c1)C(F)(F)F (centres unmarked) [Example 570]	
1600	COc1cccc(-c2cccc(N(Cc3cccc(OC(F)(F)C(F)F)c3)CC(O)C(F)(F)F)c2)c1 (centres unmarked) [Example 571]	
10000	Nc1cccc(-c2cccc(N(Cc3cccc(OC(F)(F)C(F)F)c3)CC(O)C(F)(F)F)c2)c1 (centres unmarked) [Example 572]	
> 50000	O=C(O)c1ccc(-c2cccc(N(Cc3cccc(OC(F)(F)C(F)F)c3)CC(O)C(F)(F)F)c2)cc1 (centres unmarked) [Example 573]	
18000	CC(C)(C)c1ccc(-c2cccc(N(Cc3cccc(OC(F)(F)C(F)F)c3)CC(O)C(F)(F)F)c2)cc1 (centres unmarked) [Example 574]	
6400	N#Cc1cccc(N(Cc2cccc(OC(F)(F)C(F)F)c2)CC(O)C(F)(F)F)c1 (centres unmarked) [Example 576, 3-[[[3-(1,1,2,2-tetrafluoroethoxy)phenyl]methyl](3,3,3-trifluoro-2-hydroxypropyl)amino]benzonitrile]	

IC50 [1] [nM]	SMILES	IC50 [2] [nM]
> 50000	OC(CN(Cc1cccc(OC(F)(F)C(F)F)c1)c1cccc(-c2nn[nH]n2)c1)C(F)(F)F (centres unmarked) [Example 577, 3-[[[3-(1,1,2,2-tetrafluoroethoxy)phenyl]methyl][3-(1H-tetrazol-5-yl)phenyl]amino]-1,1,1-trifluoro-2-propanol]	
760	Cc1cc(C(=O)c2cccc(N(Cc3cccc(OC(F)(F)C(F)F)c3)CC(O)C(F)(F)F)c2)ccc1F (centres unmarked) [Example 578, (4-Fluoro-3-methylphenyl) [3-[[[(1,1,2,2-tetrafluoroethoxy)phenyl]methyl](3,3,3-trifluoro-2-hydroxypropyl)amino]phenyl]methanone]	
1800	O=C(c1ccccc1)c1cccc(N(Cc2cccc(OC(F)(F)C(F)F)c2)CC(O)C(F)(F)F)c1 (centres unmarked) [Example 579]	
2300	O=C(c1ccc(F)cc1)c1cccc(N(Cc2cccc(OC(F)(F)C(F)F)c2)CC(O)C(F)(F)F)c1 (centres unmarked) [Example 580]	
870	O=C(c1cccc(N(Cc2cccc(OC(F)(F)C(F)F)c2)CC(O)C(F)(F)F)c1)C1CCCC1 (centres unmarked) [Example 581]	
1400	CC(C)C(=O)c1cccc(N(Cc2cccc(OC(F)(F)C(F)F)c2)CC(O)C(F)(F)F)c1 (centres unmarked) [Example 582]	
6400	OC(c1ccccc1)c1cccc(N(Cc2cccc(OC(F)(F)C(F)F)c2)CC(O)C(F)(F)F)c1 (stereo not drawn) [Example 583, α-Phenyl-3-[[[3-(1,1,2,2-tetrafluoroethoxy)phenyl]methyl]](3,3,3-trifluoro-2-hydroxypropyl)benzenemethanol]	
	OC(CN(Cc1cccc(-c2ncccc2C(F)(F)F)c1)c1cccc(Oc2ccccc2)c1)C(F)(F)F (centres unmarked) [Example 588, 3-[(3-phenoxyphenyl)[[3-[(3-trifluoromethyl)-2-pyridinyl]phenyl]methyl]amino]-1,1,1-trifluoro-2-propanol]	4100
	Cc1cccnc1-c1cccc(CN(CC(O)C(F)(F)F)c2cccc(Oc3ccccc3)c2)c1 (centres unmarked) [Example 589]	15000
14000	OC(CN(Cc1cccc(-c2cccnc2)c1)c1cccc(Oc2ccccc2)c1)C(F)(F)F (centres unmarked) [Example 590]	
	OC(CN(Cc1cccc(-c2ccncc2)c1)c1cccc(Oc2ccccc2)c1)C(F)(F)F (centres unmarked) [Example 591]	6200
13000	OC(CN(Cc1cccc(Cc2ccccc2)c1)c1cccc(Oc2ccccc2)c1)C(F)(F)F (centres unmarked) [Example 596, 3-[(3-phenoxyphenyl)[[3-(phenylmethyl)phenyl]methyl]amino]-1,1,1-trifluoro-2-propanol]	
2000	CC(C)CCc1cccc(CN(CC(O)C(F)(F)F)c2cccc(Oc3ccccc3)c2)c1 (centres unmarked) [Example 597]	
	CC(C)Cc1cccc(CN(CC(O)C(F)(F)F)c2cccc(Oc3ccccc3)c2)c1 (centres unmarked) [Example 598]	540
12000	OC(CN(Cc1cccc(Oc2ncccn2)c1)c1cccc(Oc2ccccc2)c1)C(F)(F)F (centres unmarked) [Example 605, 3-[(3-phenoxyphenyl) [[3-(2-pyrimidinyloxy)phenyl]methyl]amino]-1,1,1-trifluoro-2-propanol]	
310	OC(CN(Cc1cccc(C2CCCC2)c1)c1cccc(Oc2ccccc2)c1)C(F)(F)F (centres unmarked) [Example 607, 3-[(3-phenoxyphenyl)[[3-cyclopentylphenyl]methyl]amino]-1,1,1-trifluoro-2-propanol]	
2300	OC(CN(Cc1cccc(C2CCCO2)c1)c1cccc(Oc2ccccc2)c1)C(F)(F)F (centres unmarked) [Example 608, 3-[(3-phenoxyphenyl)[[3-(tetrahydro-2-furanyl)phenyl]methyl]amino]-1,1,1-trifluoro-2-propanol]	
20000	FC(F)C(F)(F)Oc1cccc(C2OC(C(F)(F)F)CN2c2cccc(Oc3ccccc3)c2)c1 (centres unmarked) [Example 610, 3-(3-phenoxyphenyl)-2-[3-(1,1,2,2-tetrafluoroethoxy)phenyl]-5-(trifluoromethyl)oxazolidine]	

SMILES	IC50 [1] [nM]	IC50 [2] [nM]
CS(=O)(=O)c1ccc(-c2cccc(N(Cc3cccc(OC(F)(F)C(F)F)c3)CC(O)C(F)(F)F)c2)cc1 (centres unmarked) [Example 575]	> 50000	
CCOC(=O)c1cccc(N(Cc2cccc(OC(F)(F)F)c2)CC(O)C(F)(F)F)c1 (centres unmarked) [Example 585, Ethyl 3-[(3,3,3-trifluoro-2-hydroxypropyl)[[(3-trifluoromethoxy)phenyl]methyl]amino]benzoate]	5800	
O=C(O)c1cccc(N(Cc2cccc(OC(F)(F)F)c2)CC(O)C(F)(F)F)c1 (centres unmarked) [Example 586]	> 50000	
OC(CN(Cc1cccc(-c2ccccc2)c1)c1cccc(Oc2ccccc2)c1)C(F)(F)F (centres unmarked) [Example 606]	4200	
